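GI50 is the concentration that inhibits growth by half. TGI: total growth inhibition.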
Legend:
Test in all cases: NCI tumour cell line growth inhibition, 384-well format
NCI-H460 NSCLC = tested on: NCI-H460 NSCLC
HCC-2998 colon = tested on: HCC-2998 colon
MDA-MB-468 breast = tested on: MDA-MB-468 breast
SF-268 CNS = tested on: SF-268 CNS
OVCAR-5 ovarian = tested on: OVCAR-5 ovarian
OVCAR-4 ovarian = tested on: OVCAR-4 ovarian
UACC-257 melanoma = tested on: UACC-257 melanoma
LOX IMVI melanoma = tested on: LOX IMVI melanoma
MDA-MB-435 melanoma = tested on: MDA-MB-435 melanoma
A498 renal = tested on: A498 renal
EKVX NSCLC = tested on: EKVX NSCLC
RPMI-8226 leukemia = tested on: RPMI-8226 leukemia
RXF 393 renal = tested on: RXF 393 renal
HS 578T breast = tested on: HS 578T breast
ACHN renal = tested on: ACHN renal
SN12C renal = tested on: SN12C renal
A549 NSCLC = tested on: A549 NSCLC
MCF7 breast = tested on: MCF7 breast
SK-MEL-5 melanoma = tested on: SK-MEL-5 melanoma
MALME-3M melanoma = tested on: MALME-3M melanoma
OVCAR-3 ovarian = tested on: OVCAR-3 ovarian
U251 glioblastoma = tested on: U251 glioblastoma
CAKI-1 renal = tested on: CAKI-1 renal
HOP-62 NSCLC = tested on: HOP-62 NSCLC
HOP-92 NSCLC = tested on: HOP-92 NSCLC
COLO 205 colon = tested on: COLO 205 colon
DU-145 prostate = tested on: DU-145 prostate
SF-539 CNS = tested on: SF-539 CNS
SK-OV-3 ovarian = tested on: SK-OV-3 ovarian
SK-MEL-28 melanoma = tested on: SK-MEL-28 melanoma
SW-620 colon = tested on: SW-620 colon
CCRF-CEM leukemia = tested on: CCRF-CEM leukemia
T-47D breast = tested on: T-47D breast
KM12 colon = tested on: KM12 colon
SR leukemia = tested on: SR leukemia
TK-10 renal = tested on: TK-10 renal
PC-3 prostate = tested on: PC-3 prostate
UO-31 renal = tested on: UO-31 renal
HCT-15 colon = tested on: HCT-15 colon
IGROV1 ovarian = tested on: IGROV1 ovarian
NCI-H23 lung = tested on: NCI-H23 lung
NCI-H522 lung = tested on: NCI-H522 lung
HT29 colon = tested on: HT29 colon
786-0 renal = tested on: 786-0 renal
HCT-116 colon = tested on: HCT-116 colon
BT-549 breast = tested on: BT-549 breast
M14 melanoma = tested on: M14 melanoma
SNB-75 CNS = tested on: SNB-75 CNS
OVCAR-8 ovarian = tested on: OVCAR-8 ovarian
NCI/ADR-RES ovarian = tested on: NCI/ADR-RES ovarian
HL-60(TB) leukemia = tested on: HL-60(TB) leukemia
NCI-H322M lung = tested on: NCI-H322M lung
MDA-MB-231 breast = tested on: MDA-MB-231 breast
SNB-19 CNS = tested on: SNB-19 CNS
UACC-62 melanoma = tested on: UACC-62 melanoma
MOLT-4 leukemia = tested on: MOLT-4 leukemia
NCI-H226 lung = tested on: NCI-H226 lung
SF-295 CNS = tested on: SF-295 CNS
SK-MEL-2 melanoma = tested on: SK-MEL-2 melanoma

## Nc1cccc2c1C(=O)N(C1CCC(=O)NC1=O)C2=O (stereo unspecified)
NCI-H460 NSCLC
  GI50: > 100 µM
  TGI: > 100 µM
HCC-2998 colon
  GI50: > 100 µM
  TGI: > 100 µM
MDA-MB-468 breast
  GI50: > 100 µM
  TGI: > 100 µM
SF-268 CNS
  GI50: > 100 µM
  TGI: > 100 µM
OVCAR-5 ovarian
  GI50: > 100 µM
  TGI: > 100 µM
OVCAR-4 ovarian
  GI50: > 100 µM
  TGI: > 100 µM
UACC-257 melanoma
  GI50: > 100 µM
  TGI: > 100 µM
LOX IMVI melanoma
  TGI: > 100 µM
MDA-MB-435 melanoma
  GI50: > 100 µM
  TGI: > 100 µM
A498 renal
  GI50: > 100 µM
  TGI: > 100 µM
EKVX NSCLC
  GI50: > 100 µM
  TGI: > 100 µM
RPMI-8226 leukemia
  GI50: 22.9 µM
  TGI: > 100 µM
RXF 393 renal
  GI50: > 100 µM
  TGI: > 100 µM
HS 578T breast
  GI50: > 100 µM
  TGI: > 100 µM
ACHN renal
  GI50: > 100 µM
  TGI: > 100 µM
SN12C renal
  GI50: > 100 µM
  TGI: > 100 µM
A549 NSCLC
  GI50: > 100 µM
  TGI: > 100 µM
MCF7 breast
  GI50: > 100 µM
  TGI: > 100 µM
SK-MEL-5 melanoma
  GI50: > 100 µM
  TGI: > 100 µM
MALME-3M melanoma
  GI50: > 100 µM
  TGI: > 100 µM
OVCAR-3 ovarian
  GI50: > 100 µM
  TGI: > 100 µM
U251 glioblastoma
  GI50: > 100 µM
  TGI: > 100 µM
CAKI-1 renal
  GI50: > 100 µM
  TGI: > 100 µM
HOP-62 NSCLC
  GI50: > 100 µM
  TGI: > 100 µM
HOP-92 NSCLC
  GI50: > 100 µM
  TGI: > 100 µM
COLO 205 colon
  GI50: > 100 µM
  TGI: > 100 µM
DU-145 prostate
  GI50: > 100 µM
  TGI: > 100 µM
SF-539 CNS
  GI50: > 100 µM
  TGI: > 100 µM
SK-OV-3 ovarian
  GI50: > 100 µM
  TGI: > 100 µM
SK-MEL-28 melanoma
  GI50: > 100 µM
  TGI: > 100 µM
SW-620 colon
  GI50: > 100 µM
  TGI: > 100 µM
CCRF-CEM leukemia
  GI50: > 100 µM
  TGI: > 100 µM
T-47D breast
  GI50: > 100 µM
  TGI: > 100 µM
KM12 colon
  GI50: > 100 µM
  TGI: > 100 µM
SR leukemia
  GI50: > 100 µM
  TGI: > 100 µM
TK-10 renal
  GI50: > 100 µM
  TGI: > 100 µM
PC-3 prostate
  GI50: > 100 µM
  TGI: > 100 µM
UO-31 renal
  GI50: > 100 µM
  TGI: > 100 µM
HCT-15 colon
  GI50: > 100 µM
  TGI: > 100 µM
IGROV1 ovarian
  GI50: > 100 µM
  TGI: > 100 µM
NCI-H23 lung
  GI50: > 100 µM
  TGI: > 100 µM
NCI-H522 lung
  GI50: > 100 µM
  TGI: > 100 µM
HT29 colon
  GI50: > 100 µM
  TGI: > 100 µM
786-0 renal
  GI50: > 100 µM
  TGI: > 100 µM
HCT-116 colon
  GI50: > 100 µM
  TGI: > 100 µM
BT-549 breast
  GI50: > 100 µM
  TGI: > 100 µM
M14 melanoma
  GI50: > 100 µM
  TGI: > 100 µM
SNB-75 CNS
  GI50: > 100 µM
  TGI: > 100 µM
OVCAR-8 ovarian
  GI50: > 100 µM
  TGI: > 100 µM
NCI/ADR-RES ovarian
  GI50: > 100 µM
  TGI: > 100 µM
HL-60(TB) leukemia
  GI50: > 100 µM
  TGI: > 100 µM
NCI-H322M lung
  GI50: > 100 µM
  TGI: > 100 µM
MDA-MB-231 breast
  GI50: > 100 µM
  TGI: > 100 µM
SNB-19 CNS
  GI50: > 100 µM
  TGI: > 100 µM
UACC-62 melanoma
  GI50: > 100 µM
  TGI: > 100 µM
MOLT-4 leukemia
  GI50: > 100 µM
  TGI: > 100 µM
NCI-H226 lung
  GI50: > 100 µM
  TGI: > 100 µM
SF-295 CNS
  GI50: > 100 µM
  TGI: > 100 µM

## COc1ccc(N(C)c2nc(C)nc3ccccc23)cc1
NCI-H460 NSCLC
  GI50: < 0.01 µM
  TGI: < 0.01 µM
HCC-2998 colon
  GI50: < 0.01 µM
  TGI: < 0.01 µM
MDA-MB-468 breast
  GI50: < 0.01 µM
  TGI: < 0.01 µM
SF-268 CNS
  GI50: < 0.01 µM
  TGI: < 0.01 µM
OVCAR-5 ovarian
  GI50: < 0.01 µM
  TGI: > 100 µM
OVCAR-4 ovarian
  GI50: < 0.01 µM
  TGI: 2.08 µM
UACC-257 melanoma
  GI50: < 0.01 µM
  TGI: 75.5 µM
MDA-MB-435 melanoma
  GI50: < 0.01 µM
  TGI: < 0.01 µM
A498 renal
  GI50: < 0.01 µM
  TGI: 35.4 µM
EKVX NSCLC
  GI50: < 0.01 µM
  TGI: 25.1 µM
RPMI-8226 leukemia
  GI50: < 0.01 µM
  TGI: < 0.01 µM
RXF 393 renal
  GI50: < 0.01 µM
  TGI: < 0.01 µM
HS 578T breast
  GI50: < 0.01 µM
  TGI: < 0.01 µM
ACHN renal
  GI50: < 0.01 µM
  TGI: 11.4 µM
SK-MEL-2 melanoma
  GI50: < 0.01 µM
  TGI: < 0.01 µM
SN12C renal
  GI50: < 0.01 µM
  TGI: 46 µM
MCF7 breast
  GI50: < 0.01 µM
  TGI: 0.184 µM
SK-MEL-5 melanoma
  GI50: < 0.01 µM
  TGI: < 0.01 µM
MALME-3M melanoma
  GI50: < 0.01 µM
  TGI: < 0.01 µM
OVCAR-3 ovarian
  GI50: < 0.01 µM
  TGI: < 0.01 µM
U251 glioblastoma
  GI50: < 0.01 µM
  TGI: < 0.01 µM
CAKI-1 renal
  GI50: < 0.01 µM
  TGI: 0.288 µM
HOP-62 NSCLC
  GI50: < 0.01 µM
  TGI: 5.64 µM
HOP-92 NSCLC
  GI50: < 0.01 µM
  TGI: 0.0131 µM
COLO 205 colon
  GI50: < 0.01 µM
  TGI: < 0.01 µM
DU-145 prostate
  GI50: < 0.01 µM
  TGI: 0.0328 µM
SF-539 CNS
  GI50: < 0.01 µM
  TGI: < 0.01 µM
SK-OV-3 ovarian
  GI50: < 0.01 µM
  TGI: < 0.01 µM
SK-MEL-28 melanoma
  GI50: < 0.01 µM
  TGI: < 0.01 µM
SW-620 colon
  GI50: < 0.01 µM
  TGI: > 100 µM
CCRF-CEM leukemia
  GI50: < 0.01 µM
  TGI: < 0.01 µM
T-47D breast
  GI50: < 0.01 µM
  TGI: 55.7 µM
KM12 colon
  GI50: < 0.01 µM
  TGI: 38.4 µM
SR leukemia
  GI50: < 0.01 µM
  TGI: < 0.01 µM
TK-10 renal
  GI50: < 0.01 µM
  TGI: 90.3 µM
PC-3 prostate
  GI50: < 0.01 µM
  TGI: < 0.01 µM
HCT-15 colon
  GI50: < 0.01 µM
  TGI: < 0.01 µM
IGROV1 ovarian
  GI50: < 0.01 µM
  TGI: > 100 µM
NCI-H23 lung
  GI50: < 0.01 µM
  TGI: < 0.01 µM
NCI-H522 lung
  GI50: < 0.01 µM
  TGI: < 0.01 µM
HT29 colon
  GI50: < 0.01 µM
  TGI: 13 µM
BT-549 breast
  GI50: < 0.01 µM
  TGI: < 0.01 µM
M14 melanoma
  GI50: < 0.01 µM
  TGI: < 0.01 µM
SNB-75 CNS
  GI50: < 0.01 µM
  TGI: < 0.01 µM
OVCAR-8 ovarian
  GI50: < 0.01 µM
  TGI: < 0.01 µM
NCI/ADR-RES ovarian
  GI50: < 0.01 µM
  TGI: < 0.01 µM
HL-60(TB) leukemia
  GI50: < 0.01 µM
  TGI: < 0.01 µM
NCI-H322M lung
  GI50: < 0.01 µM
  TGI: > 100 µM
MDA-MB-231 breast
  GI50: < 0.01 µM
  TGI: 23.9 µM
SNB-19 CNS
  GI50: < 0.01 µM
  TGI: < 0.01 µM
UACC-62 melanoma
  GI50: < 0.01 µM
  TGI: < 0.01 µM
MOLT-4 leukemia
  GI50: < 0.01 µM
  TGI: < 0.01 µM
NCI-H226 lung
  GI50: < 0.01 µM
  TGI: < 0.01 µM

Reference: PubChem BioAssay (NCI)
